Values quoted from earlier work in patent US10085973B2, “Pharmaceutical composition containing a compound having a thrombopoietin receptor agonistic activity” (Shionogi & Co., Ltd., priority 2012, dated 2018).
Where two headings read alike, the source gives them in different places.

Tested on: chronic liver disease patients with platelet count of less than 5×10^4/μL
Details: cited from earlier work

Structure (SMILES): CC1=NN(c2ccc(C)c(C)c2)C(=O)/C1=N\Nc1cccc(-c2cccc(C(=O)O)c2)c1O [Eltrombopag]
- avoidance of platelet transfusion (active drug group, administered for 2 weeks before invasive procedures): 72%
- incidence of portal vein thrombosis (active drug group): 4%
- risk of development of portal vein thrombosis (group having platelet count of 20×10^4/μL or higher during the investigation period): 10.6%
- risk of development of portal vein thrombosis (group with platelet count of less than 20×10^4/μL): 1.2%
- risk of portal vein thrombosis, group 20×10^4/μL or higher vs group less than 20×10^4/μL (human, in vivo): about 9 times
- cases with platelet count 20×10^4/μL or higher at the time of development of portal vein thrombosis (out of 6 cases in the active drug group): 5
